Data reported in patent publication US9975854B2, “Benzomorphan analogs and use thereof” (Purdue Pharma L.P., priority 2014, dated 2018).

Columns and labels:
Assay type in all cases: biochemical
[1] = target: κ-opioid receptor (Homo sapiens (Human), UniProt P41145); test: κ-opioid receptor [35S]GTPγS functional assay, U-2 OS cells; conditions: for Emax: relative to U69,593
Protocol: Functional [^35S]GTPγS binding assays were conducted as follows. K opioid receptor membrane solution was prepared by sequentially adding final concentrations of 0.026 μg/μl κ membrane protein (in-house), 10 μg/mL saponin, 3 μM GDP and 0.20 nM [^35S]GTPγS to binding buffer (100 mM NaCl, 10 mM MgCl2, 20 mM HEPES, pH 7.4) on ice. The prepared membrane solution (190 μl/well) was transferred to 96-shallow well polypropylene plates containing 10 μl of 20× concentrated stock solutions of agonist prepared in DMSO. Plates were incubated for 30 min at a temperature of about 25° C. with shaking. Reactions were terminated by rapid filtration onto 96-well Unifilter GF/B filter plates (Perkin Elmer, Shelton, Conn.) using a 96-well tissue harvester (Packard) and followed by three filtration washes with 200 μl ice-cold binding buffer (10 mM NaH2PO4, 10 mM Na2HPO4, pH 7.4). Filter plates were subsequently dried at 50° C. for 2-3 hours. Fifty μl/well scintillation cocktail (Perkin Elmer, Shelton, Conn.) was added and plates were counted in a Packard Top-Count for 1 min/well.
κ GTP EC50 is the concentration of a compound providing 50% of the maximal response for the compound at a κ receptor.
κ GTP Emax (%) is the maximal effect elicited by a compound relative to the effect elicited by U69,593.
(§1) In TABLE 5, activity response of certain Compounds of the Invention to the μ- and κ-opioid receptors was determined as described above for functional assays using U-2 OS cells.

[2] = target: T1, μ-opioid receptor (Homo sapiens (Human), UniProt P35372); test: μ-opioid receptor [35S]GTPγS functional assay, HEK-293 or CHO cells; conditions: for Emax: relative to DAMGO
Protocol: (§2) [^35S]GTPγS functional assays were conducted using freshly thawed μ-receptor membranes prepared in-house from a cell line expressing recombinant opioid receptor in a HEK-293, CHO or U-2 OS cell background, or purchased from a commercial source (Perkin Elmer, Shelton, Conn.; or DiscovRx, Fremont, Calif.). Assay reactions were prepared by sequentially adding the following reagents to binding buffer (100 mM NaCl, 10 mM MgCl2, 20 mM HEPES, pH 7.4) on ice (final concentrations indicated): membrane protein (0.026 mg/mL), saponin ([…]), GDP ([…]) and [^35S]GTPγS (0.20 nM; Perkin Elmer, Shelton, Conn.). The prepared membrane solution (190 μl/well) was transferred to 96-shallow well polypropylene plates containing 10 μl of 20× concentrated stock solutions of the agonist [D-Ala^2, N-methyl-Phe^4 Gly-ol^5]-enkephalin (DAMGO) prepared in dimethyl sulfoxide (DMSO). Plates were incubated for 30 min at about 25° C. with shaking. Reactions were terminated by rapid filtration onto 96-well Unifilter GF/B filter plates (Perkin Elmer, Shelton, Conn.) using a 96-well tissue harvester (Perkin Elmer, Shelton, Conn.) followed by three filtration washes with 200 μl of ice-cold wash buffer (10 mM NaH2PO4, 10 mM Na2HPO4, pH 7.4). Filter plates were subsequently dried at 50° C. for 2-3 hr. BetaScint scintillation cocktail (Perkin Elmer, Shelton, Conn.) was added (50 μl/well) and plates were counted using a Packard Top-Count for 1 min/well. Data were analyzed using the sigmoidal dose-response curve fitting functions in GraphPad PRISM v. 3.0, or an in-house function for non-linear, sigmoidal dose-response curve-fitting.
(§3) μ GTP EC50 is the concentration of a compound providing 50% of the maximal response for the compound at a μ-opioid receptor.
(§4) μ GTP Emax (%) is the maximal effect elicited by a compound relative to the effect elicited by DAMGO, a standard p agonist. Generally, the μ GTP Emax (%) value measures the efficacy of a compound to treat or prevent pain or other Conditions.
In TABLE 4, activity response of certain Compounds of the Invention to the μ- and κ-opioid receptors was determined as described above for functional assays using HEK-293 or CHO cells.

[3] = target: T1, μ-opioid receptor; test: μ-opioid receptor [35S]GTPγS functional assay, U-2 OS cells; conditions: for Emax: relative to DAMGO
Protocol: as §2, §3, §4, §1

[4] = HEK-293 or CHO cells, read-out: GTPγS μ EC50
[5] = HEK-293 or CHO cells, bound given in uM, read-out: GTPγS μ EC50

| Compound | EC50 [2, 4] | Emax ([2]; HEK-293 or CHO cells) | further results |
| --- | --- | --- | --- |
| CN1CC[C@@]2(C)c3cc(O)ccc3C[C@@H]1[C@H]2NCCC1(O)CCCCC1 [Compound 12, (2R,6S,11S)-11-((2-(1-hydroxycyclohexyl)ethyl)amino)-3,6-dimethyl-1,2,3,4,5,6-hexahydro-2,6-methano-benzo[d]azocin-8-ol] | 0.223 ± 0.0298 µM | 47.7 ± 4.84% | EC50 [1]: 137 ± 20.1 nM; Emax [1]: 54 ± 5.92%; EC50 [3]: 33.6 ± 1.43 nM; Emax [3]: 100 ± 1.67% |
| CN1CC[C@@]2(C)c3cc(O)ccc3C[C@@H]1[C@@H]2N(C)C(=O)CC(=O)Nc1ccc(F)cc1F [Compound 26, N^1-(2,4-difluorophenyl)-N^3—((2R,6S,11R)-8-hydroxy-3,6-dimethyl-1,2,3,4,5,6-hexahydro-2,6-methanobenzo[d]azocin-11-yl)-N^3-methylmalonamide] | 0.00397 ± 0.00025 µM | 76.7 ± 2.73% | EC50 [1]: 54.3 ± 9.45 nM; Emax [1]: 81.7 ± 10.7%; EC50 [3]: 0.33 ± 0.025 nM; Emax [3]: 107 ± 3.06% |
| CN1CC[C@@]2(C)c3cc(O)ccc3C[C@@H]1[C@@H]2N(C)CC(=O)Nc1nc2ccc(F)cc2s1 [Compound 40, N-(6-fluorobenzo[d]thiazol-2-yl)-2-(((2R,6S,11R)-8-hydroxy-3,6-dimethyl-1,2,3,4,5,6-hexahydro-2,6-methanobenzo[d]azocin-11-yl)(methyl)amino)acetamide] | – | – | EC50 [1]: 10900 ± 1410 nM; Emax [1]: 45.2 ± 4.82%; EC50 [3]: 539 ± 62.8 nM; Emax [3]: 18.7 ± 0.67% |
| CN1CC[C@@]2(C)c3cc(C#N)ccc3C[C@@H]1[C@@H]2NCCc1ccccc1 [Compound 113, (2R,6S,11R)-3,6-dimethyl-11-(phenethylamino)-1,2,3,4,5,6-hexahydro-2,6-methanobenzo[d]azocine-8-carbonitrile] | 11.7 ± 2.81 µM | 10.3 ± 1.1% | – |
| CN1CC[C@@]2(C)c3cc(C(N)=O)ccc3C[C@@H]1[C@@H]2NCCc1ccccc1 [Compound 114, (2R,6S,11R)-3,6-dimethyl-11-(phenethylamino)-1,2,3,4,5,6-hexahydro-2,6-methanobenzo[d]azocine-8-carboxamide] | 8.62 ± 0.751 µM | 71 ± 2.18% | – |
| CN1CC[C@@]2(C)c3cc(C(N)=O)ccc3C[C@@H]1[C@H]2NCCc1ccccc1 [Compound 115, (2R,6S,11S)-3,6-dimethyl-11-(phenethylamino)-1,2,3,4,5,6-hexahydro-2,6-methanobenzo[d]azocine-8-carboxamide] | 0.525 ± 0.0263 µM | 83.4 ± 1.58% | – |
| CN1CC[C@@]2(C)c3cc(C#N)ccc3C[C@@H]1C2(O)O [Compound 116, (2R,6S)-11,11-dihydroxy-3,6-dimethyl-1,2,3,4,5,6-hexahydro-2,6-methanobenzo[d]azocine-8-carbonitrile] | – | 0% | EC50 [2]: > 20 µM |
| CN1CC[C@@]2(C)c3cc(C(=O)O)ccc3C[C@@H]1C2(O)O [Compound 117, (2R,6S)-11,11-dihydroxy-3,6-dimethyl-1,2,3,4,5,6-hexahydro-2,6-methanobenzo[d]azocine-8-carboxylic acid] | – | 0% | EC50 [2, 5]: > 20 µM |
| CN1CC[C@@]2(C)c3cc(C(N)=O)ccc3C[C@@H]1C2(O)O [Compound 118, (2R,6S)-11,11-dihydroxy-3,6-dimethyl-1,2,3,4,5,6-hexahydro-2,6-methanobenzo[d]azocine-8-carboxamide] | – | 6.56 ± 0.6% | EC50 [2]: 17 ± 0.566 µM |
| CN1CC[C@@]2(C)c3cc(C(N)=O)ccc3C[C@@H]1[C@@H]2N(C)C(=O)Nc1ccc(C#N)cc1 [Compound 119, (2R,6S,11R)-11-(3-(4-cyanophenyl)-1-methylureido)-3,6-dimethyl-1,2,3,4,5,6-hexahydro-2,6-methanobenzo[d]azocine-8-carboxamide] | 4.95 ± 0.508 µM | 43.9 ± 1.88% | – |
| CN1CC[C@@]2(C)c3cc(C(N)=O)ccc3C[C@@H]1[C@H]2N(C)C(=O)Nc1ccc(C#N)cc1 [Compound 120, (2R,6S,11S)-11-(3-(4-cyanophenyl)-1-methylureido)-3,6-dimethyl-1,2,3,4,5,6-hexahydro-2,6-methanobenzo[d]azocine-8-carboxamide] | – | -0.33 ± 0.67% | EC50 [2, 5]: > 20 µM |
| CN1CC[C@@]2(C)c3cc(O)ccc3C[C@@H]1[C@@H]2N(C)C(=O)Nc1nc2ccccc2o1 [Compound 121, 3-(Benzo[d]oxazol-2-yl)-1-((2R,6S,11R)-8-hydroxy-3,6-dimethyl-1,2,3,4,5,6-hexahydro-2,6-methanobenzo[d]azocin-11-yl)-1-methylurea] | 0.0824 ± 0.0104 µM | 60.1 ± 4.74% | – |
| CN1CC[C@@]2(C)c3cc(O)ccc3C[C@@H]1[C@H]2NC(=O)Nc1nc2cc(F)ccc2s1 [Compound 122, 1-(5-Fluorobenzo[d]thiazol-2-yl)-3-((2R,6S,11S)-8-hydroxy-3,6-dimethyl-1,2,3,4,5,6-hexahydro-2,6-methanobenzo[d]azocin-11-yl)urea] | 0.375 ± 0.106 µM | 13.6 ± 1.14% | – |
| CN1CC[C@@]2(C)c3cc(C(N)=O)ccc3C[C@@H]1[C@@H]2N(C)CCc1ccccc1 [Compound 123, (2R,6S,11R)-3,6-dimethyl-11-(methyl(phenethyl)amino)-1,2,3,4,5,6-hexahydro-2,6-methanobenzo[d]azocine-8-carboxamide] | 0.0233 ± 0.00447 µM | 97.4 ± 0.2% | – |
| CN1CC[C@@]2(C)c3cc(C(N)=O)ccc3C[C@@H]1[C@@H]2N(C)C(=O)Cc1ccccc1 [Compound 124, (2R,6S,11R)-3,6-dimethyl-11-(N-methyl-2-phenylacetamido)-1,2,3,4,5,6-hexahydro-2,6-methanobenzo[d]azocine-8-carboxamide] | 3.54 ± 0.48 µM | 81.6 ± 3.37% | – |
| CN1CC[C@@]2(C)c3cc(C(=O)O)ccc3C[C@@H]1[C@H]2NCCc1ccc(S(C)(=O)=O)cc1 [Compound 125, (2R,6S,11S)-3,6-dimethyl-11-((4-(methylsulfonyl)phenethyl)amino)-1,2,3,4,5,6-hexahydro-2,6-methanobenzo[d]azocine-8-carboxylic acid] | – | 0% | EC50 [2, 5]: > 20 µM |
| CN1CC[C@@]2(C)c3cc(C(=O)O)ccc3C[C@@H]1[C@@H]2NCCc1ccc(S(C)(=O)=O)cc1 [Compound 126, (2R,6S,11R)-3,6-dimethyl-11-((4-(methylsulfonyl)phenethyl)amino)-1,2,3,4,5,6-hexahydro-2,6-methanobenzo[d]azocine-8-carboxylic acid] | – | 18.4 ± 0.3% | EC50 [2, 5]: > 20 µM |
